# According to patent US20250154138A1, “Small Molecule IL-17A Modulators” (BeiGene, Ltd., priority 2022, published 2025):
# Experiments:
# [1] = system: IL-17-induced GROα secretion from HT-29 cells; assay: GROα release assay in human colorectal adenocarcinoma epithelial cell (HT-29, ELISA); assay type: cell-based; conditions: Homo sapiens, HT-29, 48 h, 10 ng/mL IL-17A, highest concentration 10 μM, read-out: Cellular assay HT29 cell/CXCL1 IC50
# In short: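 HT-29 cells were exposed 48 h at 37°C to IL-17A (final 10 ng/mL) preincubated 15 min with compound (4-fold dilutions, top 10 μM). Secreted GROα was quantified by ELISA against a standard curve, and IC50 obtained by four-parameter fitting.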
# [2] = biological target: human IL-17A / human IL-17RA (Homo sapiens (Human), UniProt Q16552); assay: Human IL-17A biochemical assay (HTRF, blocking of IL-17A binding to IL-17RA); conditions: 0.4 nM IL-17A, 0.3 nM IL-17RA, max compound concentration 10 uM
# In short: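 HTRF competition: 0.4 nM recombinant human IL-17A pre-incubated 3 h at room temperature with compound (top 10 uM, 2.7-fold, 10 points) in HEPES pH 7.5 buffer, then 0.3 nM IL-17RA added for 1 h, then anti-6His-Tb/anti-human IgG-XL665 detection for 1 h.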
# Chain of human IL-17A / human IL-17RA (Q16552 24-155): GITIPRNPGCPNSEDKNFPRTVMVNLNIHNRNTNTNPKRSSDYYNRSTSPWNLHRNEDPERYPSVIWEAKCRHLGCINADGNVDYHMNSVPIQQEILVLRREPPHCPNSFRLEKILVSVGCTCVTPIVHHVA
Compound,IC50 [1] [µM],IC50 [2] [µM]
"COCC1(N2CC3(CC3)CNC2=O)Cc2ccc(NC(=O)[C@@H](NC(=O)c3ccnn3C)C3CCCCC3)cc2C1 (stereo partly drawn) [Example 156, N-((1S)-1-cyclohexyl-2-((2-(methoxymethyl)-2-(6-oxo-5,7-diazaspiro[2.5]octan-5-yl)-2,3-dihydro-1H-inden-5-yl)amino)-2-oxoethyl)-1-methyl-1H-pyrazole-5-carboxamide]",0.305,0.0683
"CNC(=O)C1(N2CC3(CC3)CNC2=O)Cc2ccc(NC(=O)[C@@H](NC(=O)c3ccc(C#N)n3C3CC3)C3CCCCC3)cc2C1 (stereo partly drawn) [Example 157, 5-cyano-N-((1S)-1-cyclohexyl-2-((2-(methylcarbamoyl)-2-(6-oxo-5,7-diazaspiro[2.5]octan-5-yl)-2,3-dihydro-1H-inden-5-yl)amino)-2-oxoethyl)-1-cyclopropyl-1H-pyrrole-2-carboxamide]",0.398,0.037
"CNC(=O)C1(N2CC3(CC3)CNC2=O)Cc2ccc(NC(=O)[C@@H](NC(=O)C(F)(F)c3cccc(C#N)c3)C3CCCCC3)cc2C1 (stereo partly drawn) [Example 158, 5-((S)-2-(2-(3-cyanophenyl)-2,2-difluoroacetamido)-2-cyclohexylacetamido)-N-methyl-2-(6-oxo-5,7-diazaspiro[2.5]octan-5-yl)-2,3-dihydro-1H-indene-2-carboxamide]",0.0485,0.123
"COCC1(N2CC3(CC3)CNC2=O)Cc2ccc(NC(=O)[C@@H](NC(=O)c3ccnn3C)C(C3CC3)C3CC3)cc2C1 (stereo partly drawn) [Example 159, N-((2S)-1,1-dicyclopropyl-3-((2-(methoxymethyl)-2-(6-oxo-5,7-diazaspiro[2.5]octan-5-yl)-2,3-dihydro-1H-inden-5-yl)amino)-3-oxopropan-2-yl)-1-methyl-1H-pyrazole-5-carboxamide]",0.187,0.0532
"COCC1(N2CC3(CC3)CNC2=O)Cc2ccc(NC(=O)[C@@H](NC(=O)c3ccnn3C(C)C)C(C3CC3)C3CC3)cc2C1 (stereo partly drawn) [Example 160, N-((2S)-1,1-dicyclopropyl-3-((2-(methoxymethyl)-2-(6-oxo-5,7-diazaspiro[2.5]octan-5-yl)-2,3-dihydro-1H-inden-5-yl)amino)-3-oxopropan-2-yl)-1-isopropyl-1H-pyrazole-5-carboxamide]",0.0931,0.11
"Cn1nccc1C(=O)N[C@H](C(=O)Nc1ccc2c(c1)CC(CNc1ccccc1)(N1CC3(CC3)CNC1=O)C2)C1CCCCC1 (stereo partly drawn) [Example 161, N-((1S)-1-cyclohexyl-2-oxo-2-((2-(6-oxo-5,7-diazaspiro[2.5]octan-5-yl)-2-((phenylamino)methyl)-2,3-dihydro-1H-inden-5-yl)amino)ethyl)-1-methyl-1H-pyrazole-5-carboxamide]",0.145,0.121
"CC(C)[C@@H]1CN(C2Cc3ccc(NC(=O)[C@@H](NC(=O)c4ccnn4C)C4CCCCC4)cc3C2)C(=O)N1 (stereo partly drawn) [Example 162, N-((1S)-1-cyclohexyl-2-((2-((R)-4-isopropyl-2-oxoimidazolidin-1-yl)-2,3-dihydro-1H-inden-5-yl)amino)-2-oxoethyl)-1-methyl-1H-pyrazole-5-carboxamide]",1.06,0.54
"CC(C)[C@@H]1CN(C2(C(=O)NCc3ccccn3)Cc3ccc(NC(=O)[C@@H](NC(=O)c4ccnn4C)C4CCCCC4)cc3C2)C(=O)N1 (stereo partly drawn) [Example 163, N-((1S)-1-cyclohexyl-2-((2-((R)-4-isopropyl-2-oxoimidazolidin-1-yl)-2-((pyridin-2-ylmethyl)carbamoyl)-2,3-dihydro-1H-inden-5-yl)amino)-2-oxoethyl)-1-methyl-1H-pyrazole-5-carboxamide]",0.0388,0.019
"CNC(=O)C1(N2CC3(CC3)CNC2=O)Cc2ccc(NC(=O)C(NC(=O)c3ccnn3C)C3CCC(C(F)(F)F)CC3)cc2C1 (centres unmarked) [Example 164, 1-methyl-N-(2-((2-(methylcarbamoyl)-2-(6-oxo-5,7-diazaspiro[2.5]octan-5-yl)-2,3-dihydro-1H-inden-5-yl)amino)-2-oxo-1-(4-(trifluoromethyl)cyclohexyl)ethyl)-1H-pyrazole-5-carboxamide]",0.112,0.0352
"CC[C@H]1CC[C@H]([C@H](NC(=O)c2ccnn2C)C(=O)Nc2ccc3c(c2)CC(COC)(N2CC4(CC4)CNC2=O)C3)CC1 (stereo partly drawn) [Example 165, N-((1S)-1-((1r,4S)-4-ethylcyclohexyl)-2-((2-(methoxymethyl)-2-(6-oxo-5,7-diazaspiro[2.5]octan-5-yl)-2,3-dihydro-1H-inden-5-yl)amino)-2-oxoethyl)-1-methyl-1H-pyrazole-5-carboxamide]",0.322,0.173
"CC[C@@H]1CN(C2(C(=O)NC)Cc3ccc(NC(=O)[C@@H](NC(=O)c4ccnn4C)C(C4CC4)C4CC4)cc3C2)C(=O)N1 (stereo partly drawn) [Example 166, N-((2S)-1,1-dicyclopropyl-3-((2-((R)-4-ethyl-2-oxoimidazolidin-1-yl)-2-(methylcarbamoyl)-2,3-dihydro-1H-inden-5-yl)amino)-3-oxopropan-2-yl)-1-methyl-1H-pyrazole-5-carboxamide]",0.135,0.169
"CNC(=O)C1(N2CC3(CC3)CNC2=O)Cc2ccc(NC(=O)[C@@H](NC(=O)c3c(F)cnn3C)C3CCCCC3)cc2C1 (stereo partly drawn) [Example 167, N-((1S)-1-cyclohexyl-2-((2-(methylcarbamoyl)-2-(6-oxo-5,7-diazaspiro[2.5]octan-5-yl)-2,3-dihydro-1H-inden-5-yl)amino)-2-oxoethyl)-4-fluoro-1-methyl-1H-pyrazole-5-carboxamide]",0.22,0.127
"CNC(=O)C1(N2CC3(CC3)CNC2=O)Cc2ccc(NC(=O)C(NC(=O)c3ccnn3C)C3CCC(CC(F)(F)F)CC3)cc2C1 (centres unmarked) [Example 168, 1-methyl-N-(2-((2-(methylcarbamoyl)-2-(6-oxo-5,7-diazaspiro[2.5]octan-5-yl)-2,3-dihydro-1H-inden-5-yl)amino)-2-oxo-1-(4-(2,2,2-trifluoroethyl)cyclohexyl)ethyl)-1H-pyrazole-5-carboxamide]",0.0605,0.0328
"CC(C)[C@@H]1CN(C2(c3nc4ccccc4[nH]3)Cc3ccc(NC(=O)[C@@H](NC(=O)c4ccnn4C)C4CCCCC4)cc3C2)C(=O)N1 (stereo partly drawn) [Example 169, N-((1S)-2-((2-(1H-benzo[d]imidazol-2-yl)-2-((R)-4-isopropyl-2-oxoimidazolidin-1-yl)-2,3-dihydro-1H-inden-5-yl)amino)-1-cyclohexyl-2-oxoethyl)-1-methyl-1H-pyrazole-5-carboxamide]",0.0652,0.0564
"CC(C)C1(N2CC3(CC3)CNC2=O)Cc2ccc(NC(=O)[C@@H](NC(=O)c3ccnn3C)C3CCCCC3)cc2C1 (stereo partly drawn) [Example 170, N-((1S)-1-cyclohexyl-2-((2-isopropyl-2-(6-oxo-5,7-diazaspiro[2.5]octan-5-yl)-2,3-dihydro-1H-inden-5-yl)amino)-2-oxoethyl)-1-methyl-1H-pyrazole-5-carboxamide]",0.227,0.169
"CC[C@H]1CC[C@H]([C@H](NC(=O)c2ccnn2C)C(=O)Nc2ccc3c(c2)CC(C(=O)NC)(N2CC4(CC4)CNC2=O)C3)CC1 (stereo partly drawn) [Example 171, N-((1S)-1-((1r,4S)-4-ethylcyclohexyl)-2-((2-(methylcarbamoyl)-2-(6-oxo-5,7-diazaspiro[2.5]octan-5-yl)-2,3-dihydro-1H-inden-5-yl)amino)-2-oxoethyl)-1-methyl-1H-pyrazole-5-carboxamide]",0.0097,0.007
